Source: article PMC6770091, “P-Glycoprotein 1 Affects Chemoactivities of Resveratrol against Human Colorectal Cancer Cells” (Nutrients, 2019)
Each block holds one molecule with its values, some of them ahead of it.

Columns and labels:
[1] = system: colon carcinoma cells (all cell lines); test: [3H]-resveratrol efflux in presence of other ABC protein inhibitors; format: cell-based, human
MDR1 = conditions: mouse, not told, 30 µM
Method: (§1) Resveratrol efflux was examined by incubating confluent cells in 6-well plates over 10 min with 30 µM tritiated resveratrol in complete medium at 37 °C. […] At the end of the incubation period, the labeled medium was removed and the cells were washed two times with PBS. Fresh medium (37 °C or 4 °C) was then quickly added to allow the cells to efflux tritiated resveratrol from 1 to 360 min. At the end of each time point, the cells were washed and lysed in NaOH 0.1 M, Na2CO3 2%, SDS 0.1%. The cell homogenates were transferred into flasks and cell-associated radioactivity was counted in a liquid scintillation analyzer. We evaluated 60 min area under curves (AUC) by integrating exponential regression curves of [^3H]-resveratrol time course accumulation between 0 and 60 min.

BCRP = conditions: human, not told, 30 µM
Method: as §1

MRP2 = conditions: human, 30 µM
Method: as §1

SW480 cells [2] = test: [3H]-resveratrol efflux measurement; format: in vitro ADME, human; conditions: for Vi = % of Resveratrol Efflux . min^−1: after 10 min uptake of 30 µM [3H]-resveratrol
Method: as §1, with “analyzer.” for “analyzer. We evaluated 60 min area under curves (AUC) by integrating exponential regression curves of [^3H]-resveratrol time course accumulation between 0 and 60 min.”

HT29 cells [3] = test: [3H]-resveratrol efflux measurement; format: in vitro ADME, human; conditions: after 10 min uptake of 30 µM [3H]-resveratrol
Method: as §1

HCT116 cells [4] = test: [3H]-resveratrol efflux measurement; format: in vitro ADME, human; conditions: after 10 min uptake of 30 µM [3H]-resveratrol
Method: as §1

SW620 cells [5] = test: [3H]-resveratrol efflux measurement; format: in vitro ADME, human; conditions: after 10 min uptake of 30 µM [3H]-resveratrol
Method: as §1

MRP1 = target: T1, MRP1 (Homo sapiens, UniProt P33527); test: [3H]-resveratrol efflux, BHK 21 vs BHK21-MRP1 overexpressing clone; format: in vitro ADME; conditions: BHK 21/MRP1 vs control BHK 21, 30 µM [3H]-resveratrol, 37°C
T1 construct: expressed in transfected cells; host or cells: BHK 21 (baby hamster kidney) stably transfected clone BHK21-MRP1, provided by Dr. Attilio Di Pietro
Method: as §1

SW480 cells [6] = test: Cytotoxicity assay, crystal violet staining; format: cell-based; conditions: Homo sapiens, SW480, 72 h, read-out: IC50 (concentration inhibiting 50% of the tumor proliferation)
Method: (§2) Cell lines were seeded into 96-well plates. After 24 h of culture, the cells were treated with increasing concentrations of resveratrol for 72 h. All control and treated cells received the same volume of ethanol (0.1%). After time of treatment, cells were harvested and the toxicities were evaluated by crystal violet staining. Briefly, after treatments cells were washed with PBS 1X, stained for 5 min with a crystal violet solution (0.5% (w/v) crystal violet in 25% (v/v) methanol), and then gently rinsed with water. Absorbances were read at 540 nm with a Biochrom Asys UVM 340 spectrophotometer, after the extraction of the dye by 0.1 M sodium citrate in 50% ethanol. The inhibitory concentrations 50% (IC50) were assessed by crystal violet staining after 72 h of treatment. IC50 values were calculated by a four-parameter non-linear regression with GraphPad Prismversion 6 software (San Diego, California, CA, USA). In some experiments, after 24 h of seeding, cells were treated with resveratrol (30 µM) for 48 h before crystal violet staining. All results were expressed as percentages of control values (vehicle alone).

HT29 cells [7] = test: Cytotoxicity assay, crystal violet staining; format: cell-based; conditions: Homo sapiens, HT-29, HT29, 72 h, read-out: IC50 (concentration inhibiting 50% of the tumor proliferation)
Method: as §2

HCT116 cells [8] = test: Cytotoxicity assay, crystal violet staining; format: cell-based; conditions: Homo sapiens, HCT-116, HCT116, 72 h, read-out: IC50 (concentration inhibiting 50% of the tumor proliferation)
Method: as §2

SW620 cells [9] = test: Cytotoxicity assay, crystal violet staining; format: cell-based; conditions: Homo sapiens, SW-620, SW620, 72 h, read-out: IC50 (concentration inhibiting 50% of the tumor proliferation)
Method: as §2

T1 sequence (P33527 whole entry): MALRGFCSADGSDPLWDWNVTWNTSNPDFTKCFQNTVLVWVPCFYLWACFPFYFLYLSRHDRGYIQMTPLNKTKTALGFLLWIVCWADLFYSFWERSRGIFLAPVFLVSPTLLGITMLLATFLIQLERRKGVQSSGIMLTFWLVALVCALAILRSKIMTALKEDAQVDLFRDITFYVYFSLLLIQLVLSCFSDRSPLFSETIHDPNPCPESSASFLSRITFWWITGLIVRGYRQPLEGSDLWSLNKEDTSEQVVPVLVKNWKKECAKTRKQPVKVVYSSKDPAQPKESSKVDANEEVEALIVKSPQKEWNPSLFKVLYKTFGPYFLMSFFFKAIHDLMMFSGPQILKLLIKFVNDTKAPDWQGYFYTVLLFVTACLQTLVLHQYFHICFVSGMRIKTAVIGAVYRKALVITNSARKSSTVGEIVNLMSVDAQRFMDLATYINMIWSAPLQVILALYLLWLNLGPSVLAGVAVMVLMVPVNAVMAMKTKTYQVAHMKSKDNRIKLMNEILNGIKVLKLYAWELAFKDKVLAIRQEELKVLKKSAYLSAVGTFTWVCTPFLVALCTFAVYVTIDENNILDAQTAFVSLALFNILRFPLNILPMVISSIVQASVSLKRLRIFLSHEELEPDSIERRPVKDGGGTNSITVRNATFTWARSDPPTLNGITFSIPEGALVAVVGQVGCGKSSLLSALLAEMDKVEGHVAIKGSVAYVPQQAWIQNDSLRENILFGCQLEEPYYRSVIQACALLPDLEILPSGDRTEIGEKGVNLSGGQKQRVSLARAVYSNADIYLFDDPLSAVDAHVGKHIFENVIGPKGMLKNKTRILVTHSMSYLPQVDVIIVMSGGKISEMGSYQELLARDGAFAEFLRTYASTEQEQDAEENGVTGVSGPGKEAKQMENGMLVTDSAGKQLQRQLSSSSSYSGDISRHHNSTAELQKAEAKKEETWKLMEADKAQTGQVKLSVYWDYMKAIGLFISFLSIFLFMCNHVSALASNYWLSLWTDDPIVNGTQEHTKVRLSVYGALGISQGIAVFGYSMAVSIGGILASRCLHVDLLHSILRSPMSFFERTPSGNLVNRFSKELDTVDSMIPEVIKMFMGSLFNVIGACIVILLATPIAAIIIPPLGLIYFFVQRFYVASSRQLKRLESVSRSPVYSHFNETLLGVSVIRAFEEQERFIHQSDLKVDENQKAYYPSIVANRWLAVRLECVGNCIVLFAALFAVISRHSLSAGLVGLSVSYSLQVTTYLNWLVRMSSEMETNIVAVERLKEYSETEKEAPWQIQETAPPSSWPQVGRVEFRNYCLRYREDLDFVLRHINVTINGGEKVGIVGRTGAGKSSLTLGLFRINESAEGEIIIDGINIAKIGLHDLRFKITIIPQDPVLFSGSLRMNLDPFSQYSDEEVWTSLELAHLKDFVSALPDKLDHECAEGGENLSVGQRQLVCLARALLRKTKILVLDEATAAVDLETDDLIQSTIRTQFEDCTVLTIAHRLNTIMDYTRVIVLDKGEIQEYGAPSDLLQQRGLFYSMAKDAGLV

Compound: O=c1c(O)c(-c2ccc(O)c(O)c2)oc2cc(O)cc(O)c12 [quercetin]
- effect on resveratrol retention [1]: enhance resveratrol retention

Compound: C[C@@H]1O[C@@H](O[C@H]2C[C@@H](O)[C@]3(CO)[C@H]4[C@H](O)C[C@]5(C)[C@@H](C6=CC(=O)OC6)CC[C@]5(O)[C@@H]4CC[C@]3(O)C2)[C@H](O)[C@H](O)[C@H]1O [ouabain]
- effect on resveratrol retention [1]: enhance resveratrol retention

Compound: CCCN(CCC)S(=O)(=O)c1ccc(C(=O)O)cc1 [probenicid]
- effect on resveratrol retention [1]: enhance resveratrol retention

Compound: C=C[C@H]1C[N@@]2CC[C@H]1C[C@H]2[C@H](O)c1ccnc2ccc(OC)cc12 [quinine]
- effect on resveratrol retention [1]: enhance resveratrol retention

Compound: [O]=[V]([O-])([O-])[O-] [orthovanadate]
- effect on resveratrol retention [1]: enhance resveratrol retention

- inhibition of RSV accumulation (AUC 0-60 min of intracellular RSV level) by transporter overexpression (MDR1): 1.7 fold
- inhibition of RSV accumulation (AUC 0-60 min of intracellular RSV level) by transporter overexpression (BCRP): 1.7 fold
- AUC (0-60 min, intracellular RSV level) diminished between control cells and MRP2 overexpressing one (MRP2): 1.2 fold
- Vi = % of Resveratrol Efflux . min^−1 (SW480 cells [2]; SW480, 4°C): 4.7 % of Resveratrol Efflux . min^−1
- Vi = % of Resveratrol Efflux . min^−1 (SW480 cells [2]; SW480, 37 °C): 6.3 % of Resveratrol Efflux . min^−1
- Vi = % of Resveratrol Efflux . min^−1 (HT29 cells [3]; HT29, 4°C): 4.3 % of Resveratrol Efflux . min^−1
- Vi = % of Resveratrol Efflux . min^−1 (HT29 cells [3]; HT29, 37 °C): 5.9 % of Resveratrol Efflux . min^−1
- Vi = % of Resveratrol Efflux . min^−1 (HCT116 cells [4]; HCT116, 4°C): 2.6 % of Resveratrol Efflux . min^−1
- Vi = % of Resveratrol Efflux . min^−1 (HCT116 cells [4]; HCT116, 37 °C): 6.4 % of Resveratrol Efflux . min^−1
- Vi = % of Resveratrol Efflux . min^−1 (SW620 cells [5]; SW620, 4°C): 2.8 % of Resveratrol Efflux . min^−1
- Vi = % of Resveratrol Efflux . min^−1 (SW620 cells [5]; SW620, 37 °C): 5.7 % of Resveratrol Efflux . min^−1
- effect of MRP1 overexpression on intracellular RSV level (MRP1): early slight effect
Compound: Oc1ccc(/C=C/c2cc(O)cc(O)c2)cc1 [RSV, trans 3,5,4′ trihydroxystilbene]
- IC50 (SW480 cells [6]): ~70 µM
- IC50 (HT29 cells [7]): ~40 µM
- IC50 (HCT116 cells [8]): ~25 µM
- IC50 (SW620 cells [9]): ~20 µM

Compound: COc1ccc2c(c1)c(CC(=O)O)c(C)n2C(=O)c1ccc(Cl)cc1 [indomethacin, reference compound]
- inhibition of the release of RSV (SW480 cells [2]; SW480, inhibitor 20 µM pretreatment 10 min, 5 min efflux at 37 °C): 1.8 fold
